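Exposure lasted 48 hours, with cells grown in 96-well plates and compounds tested at five concentrations. GI50 is the concentration that inhibits growth by half. The concentration for full growth arrest is given as TGI.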
Experiments:
Test in all cases: NCI anticancer screen, dose series, 48 h
HOP-62 NSCLC = tested on: HOP-62 NSCLC
SF-268 CNS = tested on: SF-268 CNS
MOLT-4 leukemia = tested on: MOLT-4 leukemia
KM12 colon = tested on: KM12 colon
MALME-3M melanoma = tested on: MALME-3M melanoma
PC-3 prostate = tested on: PC-3 prostate
CAKI-1 renal = tested on: CAKI-1 renal
OVCAR-8 ovarian = tested on: OVCAR-8 ovarian
HT29 colon = tested on: HT29 colon
CCRF-CEM leukemia = tested on: CCRF-CEM leukemia
LOX IMVI melanoma = tested on: LOX IMVI melanoma
SNB-75 CNS = tested on: SNB-75 CNS
SF-295 CNS = tested on: SF-295 CNS
TK-10 renal = tested on: TK-10 renal
UACC-257 melanoma = tested on: UACC-257 melanoma
HS 578T breast = tested on: HS 578T breast
MDA-MB-468 breast = tested on: MDA-MB-468 breast
SNB-19 CNS = tested on: SNB-19 CNS
RXF 393 renal = tested on: RXF 393 renal
M14 melanoma = tested on: M14 melanoma
HCT-15 colon = tested on: HCT-15 colon
MCF7 breast = tested on: MCF7 breast
SN12C renal = tested on: SN12C renal
NCI-H23 lung = tested on: NCI-H23 lung
OVCAR-3 ovarian = tested on: OVCAR-3 ovarian
UACC-62 melanoma = tested on: UACC-62 melanoma
HOP-92 NSCLC = tested on: HOP-92 NSCLC
OVCAR-5 ovarian = tested on: OVCAR-5 ovarian
786-0 renal = tested on: 786-0 renal
SK-MEL-5 melanoma = tested on: SK-MEL-5 melanoma
HCC-2998 colon = tested on: HCC-2998 colon
T-47D breast = tested on: T-47D breast
A498 renal = tested on: A498 renal
NCI-H226 lung = tested on: NCI-H226 lung
ACHN renal = tested on: ACHN renal
EKVX NSCLC = tested on: EKVX NSCLC
UO-31 renal = tested on: UO-31 renal
SW-620 colon = tested on: SW-620 colon
NCI-H522 lung = tested on: NCI-H522 lung
SK-MEL-28 melanoma = tested on: SK-MEL-28 melanoma
SR leukemia = tested on: SR leukemia
RPMI-8226 leukemia = tested on: RPMI-8226 leukemia
NCI/ADR-RES ovarian = tested on: NCI/ADR-RES ovarian
NCI-H460 lung = tested on: NCI-H460 lung
SF-539 CNS = tested on: SF-539 CNS
SK-OV-3 ovarian = tested on: SK-OV-3 ovarian
MDA-MB-231 breast = tested on: MDA-MB-231 breast
HCT-116 colon = tested on: HCT-116 colon
K-562 leukemia = tested on: K-562 leukemia
MDA-MB-435 = tested on: MDA-MB-435
BT-549 breast = tested on: BT-549 breast
OVCAR-4 ovarian = tested on: OVCAR-4 ovarian
IGROV1 ovarian = tested on: IGROV1 ovarian
A549 NSCLC = tested on: A549 NSCLC
COLO 205 colon = tested on: COLO 205 colon
DU-145 prostate = tested on: DU-145 prostate
U251 CNS = tested on: U251 CNS
SK-MEL-2 melanoma = tested on: SK-MEL-2 melanoma
HL-60(TB) leukemia = tested on: HL-60(TB) leukemia

Cc1ccc(C2CC(c3ccc(NC(=S)Nc4ccccc4)cc3)=NN2c2ccc(S(N)(=O)=O)cc2)cc1 (stereo not drawn)
GI50 (HOP-62 NSCLC): 8.74 µM
TGI (HOP-62 NSCLC): 34.2 µM
GI50 (SF-268 CNS): 4.11 µM
TGI (SF-268 CNS): > 100 µM
GI50 (MOLT-4 leukemia): 2.62 µM
TGI (MOLT-4 leukemia): 13.2 µM
GI50 (KM12 colon): 4.67 µM
TGI (KM12 colon): 23.7 µM
GI50 (MALME-3M melanoma): 6.88 µM
TGI (MALME-3M melanoma): 23.6 µM
GI50 (PC-3 prostate): 2.75 µM
TGI (PC-3 prostate): 14 µM
GI50 (CAKI-1 renal): 3.12 µM
TGI (CAKI-1 renal): 12.7 µM
GI50 (OVCAR-8 ovarian): 5.96 µM
TGI (OVCAR-8 ovarian): 67.8 µM
GI50 (HT29 colon): 2.55 µM
TGI (HT29 colon): 8.75 µM
GI50 (CCRF-CEM leukemia): 3.18 µM
TGI (CCRF-CEM leukemia): 53.1 µM
GI50 (LOX IMVI melanoma): 4.76 µM
TGI (LOX IMVI melanoma): 20 µM
GI50 (SNB-75 CNS): 2.01 µM
TGI (SNB-75 CNS): 14.6 µM
GI50 (SF-295 CNS): 3.28 µM
TGI (SF-295 CNS): 15.7 µM
GI50 (TK-10 renal): 3.09 µM
TGI (TK-10 renal): 17.6 µM
GI50 (UACC-257 melanoma): 6.4 µM
TGI (UACC-257 melanoma): 30.9 µM
GI50 (HS 578T breast): 8.04 µM
TGI (HS 578T breast): 48.4 µM
GI50 (MDA-MB-468 breast): 1.81 µM
TGI (MDA-MB-468 breast): 5.56 µM
GI50 (SNB-19 CNS): 4.97 µM
TGI (SNB-19 CNS): 23.2 µM
GI50 (RXF 393 renal): 2.99 µM
TGI (RXF 393 renal): 12.7 µM
GI50 (M14 melanoma): 4.2 µM
TGI (M14 melanoma): 17.8 µM
GI50 (HCT-15 colon): 3.05 µM
TGI (HCT-15 colon): 18.8 µM
GI50 (MCF7 breast): 2.78 µM
TGI (MCF7 breast): 14.2 µM
GI50 (SN12C renal): 4.23 µM
TGI (SN12C renal): 29.5 µM
GI50 (NCI-H23 lung): 5.79 µM
TGI (NCI-H23 lung): 34 µM
GI50 (OVCAR-3 ovarian): 3.28 µM
TGI (OVCAR-3 ovarian): 22.7 µM
GI50 (UACC-62 melanoma): 3.45 µM
TGI (UACC-62 melanoma): 16 µM
GI50 (HOP-92 NSCLC): 3.81 µM
TGI (HOP-92 NSCLC): 22 µM
GI50 (OVCAR-5 ovarian): 4.54 µM
TGI (OVCAR-5 ovarian): 17.9 µM
GI50 (786-0 renal): 3.89 µM
TGI (786-0 renal): 22.5 µM
GI50 (SK-MEL-5 melanoma): 4.83 µM
TGI (SK-MEL-5 melanoma): 17.8 µM
GI50 (HCC-2998 colon): 3.58 µM
TGI (HCC-2998 colon): 18.3 µM
GI50 (T-47D breast): 3.16 µM
TGI (T-47D breast): 17.5 µM
GI50 (A498 renal): 6.73 µM
TGI (A498 renal): 25.8 µM
GI50 (NCI-H226 lung): 3.31 µM
TGI (NCI-H226 lung): 19.1 µM
GI50 (ACHN renal): 3.25 µM
TGI (ACHN renal): 11.6 µM
GI50 (EKVX NSCLC): 3.75 µM
TGI (EKVX NSCLC): 37.3 µM
GI50 (UO-31 renal): 2.67 µM
TGI (UO-31 renal): 13.3 µM
GI50 (SW-620 colon): 3.52 µM
TGI (SW-620 colon): 26.6 µM
GI50 (NCI-H522 lung): 2.84 µM
TGI (NCI-H522 lung): 14.8 µM
GI50 (SK-MEL-28 melanoma): 4.69 µM
TGI (SK-MEL-28 melanoma): 16.4 µM
GI50 (SR leukemia): 3.3 µM
TGI (SR leukemia): 27.2 µM
GI50 (RPMI-8226 leukemia): 3.45 µM
TGI (RPMI-8226 leukemia): > 100 µM
GI50 (NCI/ADR-RES ovarian): 4.04 µM
TGI (NCI/ADR-RES ovarian): 49.5 µM
GI50 (NCI-H460 lung): 3.1 µM
TGI (NCI-H460 lung): 11.5 µM
GI50 (SF-539 CNS): 5.4 µM
TGI (SF-539 CNS): 19.8 µM
GI50 (SK-OV-3 ovarian): 11 µM
TGI (SK-OV-3 ovarian): 32.9 µM
GI50 (MDA-MB-231 breast): 9.63 µM
TGI (MDA-MB-231 breast): 29.6 µM
GI50 (HCT-116 colon): 3.28 µM
TGI (HCT-116 colon): 16.9 µM
GI50 (K-562 leukemia): 3.2 µM
TGI (K-562 leukemia): 47.6 µM
GI50 (MDA-MB-435): 3.06 µM
TGI (MDA-MB-435): 25 µM
GI50 (BT-549 breast): 6.06 µM
TGI (BT-549 breast): 19.3 µM
GI50 (OVCAR-4 ovarian): 4.06 µM
TGI (OVCAR-4 ovarian): 33.5 µM
GI50 (IGROV1 ovarian): 3.44 µM
TGI (IGROV1 ovarian): 14.7 µM
GI50 (A549 NSCLC): 4.09 µM
TGI (A549 NSCLC): > 100 µM
GI50 (COLO 205 colon): 3.56 µM
TGI (COLO 205 colon): 12.3 µM
GI50 (DU-145 prostate): 8.22 µM
TGI (DU-145 prostate): 97.1 µM
GI50 (U251 CNS): 5.29 µM
TGI (U251 CNS): 24.2 µM
GI50 (SK-MEL-2 melanoma): 6.22 µM
TGI (SK-MEL-2 melanoma): 21.1 µM
GI50 (HL-60(TB) leukemia): 2.33 µM
TGI (HL-60(TB) leukemia): 6.51 µM
